From US20260232652A1, “COMBINATIONS OF DGK (DIACYLGLYCEROL KINASE) INHIBITORS” (priority 2023, published 2026)
Where “and” joins values, the source holds several entries; their conditions need not be identical. Equal entries are not always repeated. Entries after “also recorded” stand apart in the source; their conditions may differ.

Legend:
MC38 mouse model = experiment: MC38 mouse model, tumor volume, survival and re-challenge (Example 6); type: in vivo; conditions: for inhibition of tumor growth: 3 mg/kg p.o. QD each, versus control group; for Tumor volume: each agent 3 mg/kg, antibodies i.p. BIWx4, DGK inhibitors p.o. QD
Method: In order to study triple combinations or quadruple combinations with anti-CCR8 antibodies, at least one DGK inhibitor and an anti-PD(L)1 antibody, multiple experiments were performed. In order to see the differences in efficacy, the administered amounts for each individual compound or antibody were reduced to 3 mg/kg to avoid full efficacy in a monotherapy setup and to be able to evaluate the efficacy for triple and quadruple combination therapy.
Efficacy in a MC38 mouse model was analyzed in groups with 10 mice each and is shown in Table 6.1 and FIGS. 8, 9 and 10. • TPP-15285 (mIgG2a) is a surrogate antibody for anti-CCR8 antibody TPP-23411 and induces both, ADCC and ADCP. TPP-15285 was administered i.p. at 3 mg/kg with a BIWx4 administration scheme. • TPP-10748 (Iso Ctrl aCCR8) served as isotype control for TPP-15285 (mIgG2a) and was administered i.p. at 3 mg/kg with a BIWx4 administration scheme. • TPP-3911 (Atezo, mIgG1) was used as anti-PD(L)1 antibody (e.g. pembrolizumab surrogate) and was administered i.p. at 3 mg/kg with a BIWx4 administration scheme. • TPP-3267 or TPP-10149 (mIgG1) served as isotype control for anti-PD(L)1 antibody TPP-3911 (mIgGa) and were abbreviated Iso Ctrl aPD(L)1.
Antibody treatment was started on ~day 7 after tumor inoculation at ~80-100 mm^3 tumor volume, i.e. antibody administration occurred on days 7, 10, 14 and 17, after tumor inoculation. DGK inhibitor treatment started two days after the first antibody administration, i.e. on ~day 9 after tumor inoculation, i.e. DGK inhibitor was administered on day 9, 10, 11, 12, 13, 14, 15, 16, 17, 18, 19, 20 and 21 after tumor inoculation. Tumor growth inhibition was measured until tumors reached a size of 1100 mm^3 (approx. Day 20 after tumor inoculation).

MC38 tumor bearing mice = experiment: MC38 tumor bearing mice, mean tumor volume (Example 7); type: in vivo; conditions: DGKzeta inhibitor A′ 3 mg/kg QD p.o., TPP-15285 5 mg/kg BIW i.p.
Description: (§1) While the antibody administration was started on day 7 after tumor inoculation, the DGK inhibitor treatment started two days later, on day 9 after tumor inoculation. This schedule was designed to allow the efficient depletion of the Tregs by the anti-mouse CCR8 surrogate antibody before the DGK inhibitor activates the T cells. […] While the antibody administration was started on day 7 after tumor inoculation, the DGK inhibitor treatment started two days later, on day 9 after tumor inoculation. This schedule was designed to allow the efficient depletion of the Tregs by the anti-mouse CCR8 surrogate antibody before the DGK inhibitor activates the T cells. […] While the antibody administration was started on day 7 after tumor inoculation, the DGKalpha and DGKzeta inhibitor treatment started two days later, on day 9 after tumor inoculation. This schedule was designed to allow the efficient depletion of the Tregs by the anti-mouse CCR8 surrogate antibody before the DGK inhibitor activates the T cells. […] The DGKalpha and DGKzeta inhibitor treatment started on day 9 after tumor inoculation.

[1] = test system: MC38 syngeneic mouse tumor model; experiment: MC38 syngeneic mouse tumor model, different dose combination ratios (Example 5); type: in vivo; conditions: 3 mg/kg p.o. q.d. each (monotherapy, or 3 mg/kg + 3 mg/kg), day 25 after tumor inoculation
Description: The objective of this study was to observe the effects of combination therapies with DGKzeta and/or DGKalpha inhibitors on the tumor volume in the MC38 syngeneic mouse tumor model upon different dose combination ratios. The following eight treatment groups are included: • 1. Vehicle • 2. […] Treatment was started on ~day 8 after tumor inoculation at ~80-100 mm^3 tumor volume. […] Day 25 after tumor inoculation).

Human PBMCs = experiment: Activation of PBMC cells (CD25+ of CD8+ naïve T-cells, flow cytometry); type: cell-based
Method: In addition to the experimental determination according to the protocol provided below, said proportion of CD25+ cells withing the CD8+ naïve T-cells was simulated according to Meyer et al., 2019, Cell Systems 8, 97-108, Feb. 27, 2019.
The relative amount of activated (CD25+) naïve CD8 T cells were analyzed by flow cytometry. Non-stimulated cells served as negative control, cells stimulated with 30 ng/ml aCD3/aCD28/IgG were used as positive control.

[2] = test system: EMT6 murine breast carcinoma cells; experiment: Syngeneic EMT6 murine breast carcinoma model (Example 4); type: in vivo; conditions: EMT6 s.c. in Balb/c mice; DGKalpha inhibitor A 3 mg/kg QD, DGKzeta inhibitor A′ 5 mg/kg QD, plus isotype control 5 mg/kg Q3/4D; treatment day 8 to 23
Method: EMT6 murine breast carcinoma cells were inoculated s.c. into Balb/c mice (n=10/group). […] Q3/4D, every third or fourth day; QD, once daily. […] The following eight treatment groups are included: Polyethylene glycol 400 (PEG)/ethanol (EtOH)/water (60/10/30). • 1. Anti-PD-L1 (TPP-3911, 5 mg/kg) i.p., q3/4d • 2. […] DGKzeta inhibitor A' (5 mg/kg) p.o., q.d.+Isotype control (5 mg/kg) i.p., q3/4d • 4. […] Vehicle as described supra, q.d. Mice were assigned to a study at the age of 6-8 weeks. Animal husbandry, feeding and health conditions were according to animal welfare guidelines. EMT6 cell line was cultivated with appropriate medium and split at least 3 times before inoculation. Female Balb/c mice were inoculated subcutaneously with 5×10>5 tumor cells in a medium/matrigel mixture ratio of 1:1. After 8 days the mice were randomized, and therapeutic treatment started when tumors had reached a size of approx. 40-mm^2. Tumor size was measured using calipers determining length (a) and width (b), for results see FIG. 5. Tumor volume was calculated according to: […]

[3] = test system: Hepa 1-6 tumor bearing mice; experiment: Hepa 1-6 tumor bearing mice, mean tumor volume (Example 8); type: in vivo; conditions: DGKzeta inhibitor A′ 3 mg/kg QD p.o., TPP-15285 5 mg/kg BIW i.p.
Description: as §1

[4] = 4 days after start of treatment
[5] = 7 days after start of treatment
[6] = 10 days after start of treatment
[7] = 12 days after start of treatment
[8] = 14 days after start of treatment
[9] = 17 days after start of treatment
[10] = −1 days after start of treatment (6 days after start of transplantation)
[11] = Day 0 (day 7 after tumor inoculation), DGKalpha inhibitor A 5 mg/kg QD p.o.
[12] = Day 4, DGKalpha inhibitor A 5 mg/kg QD p.o.
[13] = Day 7, DGKalpha inhibitor A 5 mg/kg QD p.o.
[14] = Day 11, DGKalpha inhibitor A 5 mg/kg QD p.o.
[15] = Day 14, DGKalpha inhibitor A 5 mg/kg QD p.o.
[16] = Day 18, DGKalpha inhibitor A 5 mg/kg QD p.o.
[17] = Day 0, DGKalpha inhibitor A 5 mg/kg QD p.o.
[18] = Day 20, DGKalpha inhibitor A 5 mg/kg QD p.o.

Structure (SMILES) | inhibition of tumor growth (MC38 mouse model) | Tumor volume (MC38 mouse model; [4]) [mm^3] | Tumor volume (MC38 mouse model; [5]) [mm^3] | Tumor volume (MC38 mouse model; [6]) [mm^3] | Tumor volume (MC38 mouse model; [7]) [mm^3] | Tumor volume (MC38 mouse model; [8]) [mm^3] | Tumor volume (MC38 mouse model; [9]) [mm^3] | Tumor volume (MC38 mouse model; [10]) [mm^3] | Mean tumor volume (MC38 tumor bearing mice; [11]) [mm^3] | Mean tumor volume (MC38 tumor bearing mice; [12]) [mm^3] | Mean tumor volume (MC38 tumor bearing mice; [13]) [mm^3] | Mean tumor volume (MC38 tumor bearing mice; [14]) [mm^3] | Mean tumor volume (MC38 tumor bearing mice; [15]) [mm^3] | Mean tumor volume (MC38 tumor bearing mice; [16]) [mm^3] | inhibition of tumor growth [1] | tumor growth inhibition [2] | Mean tumor volume [3, 17] [mm^3] | Mean tumor volume [3, 12] [mm^3] | Mean tumor volume [3, 13] [mm^3] | Mean tumor volume [3, 14] [mm^3] | further results
COc1ccc(C(=O)c2sc(N(c3ccc(F)cc3)[C@H](C)C(N)=O)nc2N)cc1 [DGKzeta inhibitor A′, (R)-2-(N-[4-amino-5-(4-methoxybenzoyl)thiazol-2-yl]-4-fluoro-anilino)propanamide] | only moderate inhibition of tumor growth | 115.9 | 211.9 | 322.0 | 508.0 | 684.4 | 1097.3 | 62.4 | 91.65 | 216.68 | 480.5 | 982.9 | 1448.04 | 2879.9 | only moderate inhibition of tumor growth | only moderate tumor growth inhibitions | 88.99 | 224.86 | 429.26 | 624.07 | CD25+ of CD8+ naïve T-cells, Observed (Human PBMCs; unbound DGKai 0 nM, DGKzi 0.037 nM): 2% and 3.2%; CD25+ of CD8+ naïve T-cells, Observed (Human PBMCs; unbound DGKai 0 nM, DGKzi 0.37 nM): 1.7% and 1.6% and 4.2%; CD25+ of CD8+ naïve T-cells, Observed (Human PBMCs; unbound DGKai 0 nM, DGKzi 3.7 nM): 6% and 4.9% and 6.4%; CD25+ of CD8+ naïve T-cells, Observed (Human PBMCs; unbound DGKai 0 nM, DGKzi 11 nM): 15% and 10%; CD25+ of CD8+ naïve T-cells, Observed (Human PBMCs; unbound DGKai 0 nM, DGKzi 37 nM): 29% and 18%; CD25+ of CD8+ naïve T-cells, Observed (Human PBMCs; unbound DGKai 0 nM, DGKzi 111 nM): 34% and 25% and 35%; CD25+ of CD8+ naïve T-cells, Observed (Human PBMCs; unbound DGKai 0 nM, DGKzi 370 nM): 32% and 44% and 31%; Mean tumor volume [3, 15]: 799.19 mm^3; Mean tumor volume [3, 16]: 1001.75 mm^3; Mean tumor volume [3, 18]: 1158.6 mm^3
Cc1ccc2oc(C3CCN(c4c(C(N)=O)c(=O)n(C)c5ccc(F)cc45)CC3)nc2c1 [DGKalpha inhibitor A, 6-fluoro-1-methyl-4-[4-(5-methyl-1,3-benzoxazol-2-yl)piperidin-1-yl]-2-oxo-1,2-dihydroquinoline-3-carboxamide] | only moderate inhibition of tumor growth | 134.0 | 207.0 | 412.4 | 524.8 | 735.4 | 1122.5 | 62.0 | 91.74 | 216.59 | 483.4 | 1057.04 | 1585.28 | 2961.81 | only moderate inhibition of tumor growth; also recorded: no single agent activity | only moderate tumor growth inhibitions | 88.99 | 186.75 | 321.40 | 461.93 | CD25+ of CD8+ naïve T-cells, Observed (Human PBMCs; unbound DGKai 0.024 nM, DGKzi 0 nM): 4.1% and 3.1% and 12%; CD25+ of CD8+ naïve T-cells, Observed (Human PBMCs; unbound DGKai 0.24 nM, DGKzi 0 nM): 3.4% and 5.1% and 6.4%; CD25+ of CD8+ naïve T-cells, Observed (Human PBMCs; unbound DGKai 2.4 nM, DGKzi 0 nM): 8.3% and 2.1% and 5%; CD25+ of CD8+ naïve T-cells, Observed (Human PBMCs; unbound DGKai 24 nM, DGKzi 0 nM): 6.8% and 5.4% and 7.3%; CD25+ of CD8+ naïve T-cells, Observed (Human PBMCs; unbound DGKai 72 nM, DGKzi 0 nM): 9% and 6.7% and 12%; Mean tumor volume [3, 15]: 569.94 mm^3; Mean tumor volume [3, 16]: 787.30 mm^3; Mean tumor volume [3, 18]: 957.86 mm^3
